Measurements reported in patent US20240417400A1, “ARYL HYDROCARBON RECEPTOR (AHR) MODULATORS AND THERAPEUTIC USES THEREOF” (GALILEO BIOSYSTEMS, INC., priority 2021, published 2024).

Legend:
Assay type in all cases: cell-based
[1] = tested on: human keratinocytes; test: Inflammation of human keratinocytes induced by IL-17 and IFN-α: IL-8 release and cell viability; conditions: IL-17 and IFN-α induced, FIGS. 4A, 4B
Source text: The cells were exposed to Compound 6 or tapiranof and measured for inhibition of IL-8 release and cell viability. FIG. 4A depicts concentration response curves of inhibition of IL-8 release and cell viability for Compound 6. FIG. 4B depicts concentration response curves of inhibition of IL-8 release and cell viability for tapiranof.

[2] = tested on: T-cells; test: Inflammation of T-cells induced by CD2, CD3 and CD28: IL-2 and IL-4 release; conditions: at the highest test concentrations, FIGS. 5A, 5B
Source text: Inflammation of T-cells were induced by CD2, CD3, and CD28. The cells were exposed to Compound 6 or tapiranof and measured for inhibition of IL-2 and IL-4 release and cell viability. FIG. 5A depicts concentration response curves of inhibition of IL-2 and IL-4 release and cell viability for Compound 6. FIG. 5B depicts concentration response curves of inhibition of IL-2 and IL-4 release and cell viability for tapiranof.

[3] = tested on: human keratinocytes; test: Inflammation of human keratinocytes induced by IL-4, IL-13, IL-22 and IFN-γ: CCL2 release and cell viability; conditions: IL-4, IL-13, IL-22 and IFN-γ induced, FIGS. 3A, 3B
Source text: Inflammation of human keratinocytes was induced by IL-4, IL-13, IL-22 and IFN-γ. The cells were exposed to Compound 6 or tapiranof and measured for inhibition of CCL2 release and cell viability. FIG. 3A depicts concentration response curves of inhibition of CCL2 release and cell viability for Compound 6. FIG. 3B depicts concentration response curves of inhibition of CCL2 release and cell viability for tapiranof.

[4] = tested on: gene expression biomarkers (CYP1A1, CCL17/TARC, CCL26/Eotaxin-3, Filaggrin) in freshly excised healthy human skin; test: Gene expression biomarker activity screen in stimulated human skin explants (RT-qPCR); conditions: 10 μM in media, harvested 24 hours post stimulation
Experimental: Compound 6 and comparative compound tapinarof are evaluated for their ability to inhibit production of gene expression biomarkers using the biomarkers panel described in the below tables. Each compound is dissolved in DMSO at a dilution volume of 1000× and the resultant solutions are stored at −80° C. Concentrations tested include 1 μM, 5 μM, 10 μM, and 25 μM. Freshly excised healthy human skin is dermatomed to an approximate thickness of 750±100 μm using an Integra® dermatome according to US-SOP-3005 and US-SOP-3006. The dermatomed skin is sectioned into 7 mm biopsies and placed into 6.5 mm permeable membrane Transwell@ inserts with the Stratum corneum side apical and a section of collagen between the basal dermal tissue and the permeable membrane (n=4 per test sample). The Transwell® inserts have an average surface area of approximately 0.33 cm^2 and a volume of 0.5 mL. The basal chambers of the inserts are filled with 0.5 mL of Cornification media and the compound solutions are added to the media to a concentration of 10 μM. The inserts are stored in a humidified incubator overnight at 37° C. for approximately 16 hours. The contents of the basal chambers are vacuum aspirated and replaced with 0.5 mL of pre-warmed (ca. 37° C.) Cornification media containing the compound at a concentration of 10 μM and stimulation cocktail. Tissue explants are harvested at 24 hours post stimulation to measure production of the gene expression biomarkers by quantitative reverse transcription polymerase chain reaction (RT-qPCR). […] The test samples include untreated vehicle (control), TH1 stimulation control, TH2 stimulation control, TH17 stimulation control, tapinarof, and Compound 6.

Row | SMILES | inhibition of IL-8 release [1] | inhibition of IL-2 release [2] | inhibition of IL-4 release [2] | cell viability [3] | inhibition of CCL2 release [3] | production of CYP1A1 (gene expression) ([4]; FIG. 1A) | production of CCL17/TARC (gene expression) ([4]; FIG. 1B) | production of CCL26/Eotaxin-3 (gene expression) ([4]; FIG. 1C) | production of Filaggrin (gene expression) ([4]; FIG. 1D)
1 | O=c1c2ccccc2nc2n1CCc1c-2[nH]c2ccccc12 [Compound 6] | inhibited release of IL-8 | inhibited release of IL-2 | inhibited | did not affect cell viability | inhibited release of CCL2 | significant induction | reduction/inhibition | reduction/inhibition | significant induction
2 | CC(C)c1c(O)cc(/C=C/c2ccccc2)cc1O [tapiranof, tapinarof, reference compound] | inhibited release of IL-8 | inhibited release of IL-2 | inhibited | inhibition of cell viability at higher concentrations | inhibited release of CCL2 |  |  |  | 
